Results from US4505932A, “Method of producing α2 -adrenergic receptor agonist activity” (Abbott Laboratories, priority 1984, dated 1985).
Where a name gives a salt, the structure may show the parent alone.

How the values were obtained:
[1] = molecular target: T1, α1 -adrenergic receptors (Rattus norvegicus, UniProt P15823); test: radioligand binding, [3H] prazosin displacement in rat liver; conditions: read-out: KIα1 (dissociation constant)
T1 construct: from tissue; host or cells: rat liver
T1 sequence (P15823 1-515): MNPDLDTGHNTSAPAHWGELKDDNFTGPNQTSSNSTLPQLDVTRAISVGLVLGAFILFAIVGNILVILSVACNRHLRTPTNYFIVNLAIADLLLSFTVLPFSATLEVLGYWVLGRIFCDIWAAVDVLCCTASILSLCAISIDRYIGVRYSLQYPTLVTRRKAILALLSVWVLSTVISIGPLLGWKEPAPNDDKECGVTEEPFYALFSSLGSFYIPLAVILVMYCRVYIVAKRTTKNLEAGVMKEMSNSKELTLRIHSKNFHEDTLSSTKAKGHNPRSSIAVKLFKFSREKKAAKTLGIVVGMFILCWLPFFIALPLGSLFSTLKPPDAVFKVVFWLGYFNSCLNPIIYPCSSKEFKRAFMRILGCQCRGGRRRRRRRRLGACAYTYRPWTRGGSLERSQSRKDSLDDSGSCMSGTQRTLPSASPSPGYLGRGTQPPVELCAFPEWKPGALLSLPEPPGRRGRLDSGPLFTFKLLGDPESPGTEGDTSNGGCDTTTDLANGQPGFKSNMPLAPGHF

[2] = molecular target: α2 -adrenergic receptors; format: binding, rat; conditions: for Ki: rat brain cortex, [3H] rauwolscine, read-out: KIα2 (dissociation constant); for KIα1/KIα2: selectivity ratio, rat liver α1 vs rat brain cortex α2
[3] = tested on: spontaneously hypertensive rat; test: arterial blood pressure and heart rate in the spontaneously hypertensive rat (tail cuff); format: in vivo
Method: Two groups of Okamoto rats, which develop hypertension spontaneously when reaching young adulthood, are deprived of food for a period of 16 hours and are placed in semirestraining wire mesh cylinders maintained at a constant temperature of 36° C. An occluding cuff, operatively connected to a programmed sphygmomanometer, is placed over the tail of each rat of the group and retained near the tail base. […] A photocell is placed distal to the cuff to detect pulses resulting from the forward motion of blood flow with each heartbeat of the rat. As the pressure in the cuff increases, measurable pulses disappear at the point where the cuff pressure equals the arterial blood pressure. Measurable pluses reappear during deflation at approximately the same pressure, and arterial blood pressure is thereby established by cuff pressure at the point of pulse appearance. The heart rate is determined from the arterial pulse wave. Doses of 30 or 100 mg./kg. of the preferred compound of Example 6 were administered orally to each rat of the test groups and five interference-free signals were recorded on a Model 7 Grass polygraph for each rat at various measurement periods following administration.

[4] = tested on: α-adrenergic receptor; test: isolated rabbit aorta contraction, α-adrenergic receptor agonist activity; format: cell-based; conditions: isolated rabbit aorta strip
Method: Female rabbits, weighing 2 to 5 kg., are sacrificed by cervical dislocation. The thoracic cavity is immediately opened and the descending aorta is removed and placed in a petrie dish containing an aqueous buffer solution (Krebs buffer) of 119 mM NaCl, 25 mM […], 4.7 mM KCl, 1.5 mM MgSO4, 1.2 mM KH2 PO4, 2.5 mM CaCl2, 11 mM glucose, 0.03 mM EDTA and 0.005 mM sodium ascorbate, adjusted to a pH of 7.4. The buffer solution is continuously aerated with a mixture of 95% O2 and 5% CO2 gases. The aorta is placed on cylindrical sticks and cleaned of excess fat and connective tissue, then cut into 2 tissue segments approximately 20 mm in length. Each segment of aorta is then spiraled in strips 3.5 mm wide by turning the stick as a scapel is applied, while leaving a section of 2-3 mm at each end of the aorta section intact. The spiraled tissue is mounted in an aerated (as above) tissue bath of 10 ml. of Kreb's buffer and is attached to a Grass force transducer with an initial applied tension of 2 grams. The tissue is allowed to equilibrate in the tissue bath at a temperature of 37°±0.5° C. until the tension on the force transducer stabilizes at 2 grams.
The tissue is washed with Krebs buffer until it relaxes to baseline tension.

| SMILES | Ki [1] [nM] | Ki [2] [nM] | KIα1/KIα2 [2] | arterial blood pressure ([3]; 30 or 100 mg./kg. orally, Okamoto rats) | heart rate ([3]; spontaneously hypertensive rat, oral) | agonist character (intrinsic activity vs norepinephrine; >75% = full agonist) [4] | EC50 ([4]; contraction, read-out: ED50 (concentration producing half maximum response) in aorta strip) [nM] |
| --- | --- | --- | --- | --- | --- | --- | --- |
| NCC1CCc2c1ccc(O)c2O (stereo not drawn) [B] | 8620 | 15 | 575 | – | – | – | – |
| Clc1cccc(Cl)c1N=C1NCCN1 [Clonidine, clonidine, reference compound] | – | 34 | – | – | – | – | – |
| CNC[C@H](O)c1ccc(O)c(O)c1 [Epinephrine, epinephrine, reference compound] | – | 53 | – | – | – | – | – |
| CN(C)CC1CCc2c1ccc(O)c2O (stereo not drawn) [Example 6, 1-N,N-Dimethylaminomethyl-4,5-dihydroxy indane hydrobromide] | 6900 | 25 | 276 | decrease the arterial blood pressure | decrease | full agonist | 1600 |
| CNCC1CCc2c1ccc(O)c2O (stereo not drawn) [Example 10, 1-N-Methylaminomethyl-4,5-dihydroxy indane hydrobromide] | 1690 | 6 | 282 | – | – | – | – |
